By IC50 is commonly meant the concentration needed to halve the response being measured.

The assay deals with T1, ENaC (Homo sapiens, UniProt P37088+P51168+P51170).
T1 construct: host or cells: primary human bronchial epithelial cells (HBECs) differentiated at air-liquid interface
T1 sequence (P37088 1-669): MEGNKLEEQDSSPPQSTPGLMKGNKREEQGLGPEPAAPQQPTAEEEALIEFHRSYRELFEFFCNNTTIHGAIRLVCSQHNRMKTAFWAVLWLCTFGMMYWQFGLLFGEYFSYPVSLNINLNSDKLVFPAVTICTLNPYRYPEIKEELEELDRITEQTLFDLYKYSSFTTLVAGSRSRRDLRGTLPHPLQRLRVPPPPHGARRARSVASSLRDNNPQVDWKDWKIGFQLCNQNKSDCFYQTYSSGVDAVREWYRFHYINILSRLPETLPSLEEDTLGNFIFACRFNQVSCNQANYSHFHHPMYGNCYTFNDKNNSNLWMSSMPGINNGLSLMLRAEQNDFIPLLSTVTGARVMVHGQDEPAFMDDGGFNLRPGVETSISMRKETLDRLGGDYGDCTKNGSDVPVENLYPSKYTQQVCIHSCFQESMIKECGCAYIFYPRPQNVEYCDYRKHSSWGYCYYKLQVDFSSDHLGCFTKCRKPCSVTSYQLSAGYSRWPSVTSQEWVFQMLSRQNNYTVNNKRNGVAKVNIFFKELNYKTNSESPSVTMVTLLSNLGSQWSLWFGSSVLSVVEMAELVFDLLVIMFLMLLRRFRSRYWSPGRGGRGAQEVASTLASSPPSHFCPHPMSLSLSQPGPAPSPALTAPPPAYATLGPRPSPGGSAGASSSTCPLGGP
T1 sequence (P51168 1-640): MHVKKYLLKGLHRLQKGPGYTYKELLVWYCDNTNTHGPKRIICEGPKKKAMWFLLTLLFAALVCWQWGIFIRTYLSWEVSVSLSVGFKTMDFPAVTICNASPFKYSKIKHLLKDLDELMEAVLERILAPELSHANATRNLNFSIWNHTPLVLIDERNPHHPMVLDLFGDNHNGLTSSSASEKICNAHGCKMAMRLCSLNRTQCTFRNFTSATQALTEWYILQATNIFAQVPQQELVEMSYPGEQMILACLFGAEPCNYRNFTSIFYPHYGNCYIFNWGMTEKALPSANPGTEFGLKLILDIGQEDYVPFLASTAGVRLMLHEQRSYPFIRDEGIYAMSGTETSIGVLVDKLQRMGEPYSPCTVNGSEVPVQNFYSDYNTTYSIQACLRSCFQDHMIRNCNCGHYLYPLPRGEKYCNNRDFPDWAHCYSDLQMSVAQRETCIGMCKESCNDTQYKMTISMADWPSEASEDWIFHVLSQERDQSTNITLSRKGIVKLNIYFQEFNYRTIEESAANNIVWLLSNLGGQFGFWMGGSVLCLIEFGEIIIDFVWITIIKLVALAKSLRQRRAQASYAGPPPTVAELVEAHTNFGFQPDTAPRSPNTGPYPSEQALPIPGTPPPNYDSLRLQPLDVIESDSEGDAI
T1 sequence (P51170 1-649): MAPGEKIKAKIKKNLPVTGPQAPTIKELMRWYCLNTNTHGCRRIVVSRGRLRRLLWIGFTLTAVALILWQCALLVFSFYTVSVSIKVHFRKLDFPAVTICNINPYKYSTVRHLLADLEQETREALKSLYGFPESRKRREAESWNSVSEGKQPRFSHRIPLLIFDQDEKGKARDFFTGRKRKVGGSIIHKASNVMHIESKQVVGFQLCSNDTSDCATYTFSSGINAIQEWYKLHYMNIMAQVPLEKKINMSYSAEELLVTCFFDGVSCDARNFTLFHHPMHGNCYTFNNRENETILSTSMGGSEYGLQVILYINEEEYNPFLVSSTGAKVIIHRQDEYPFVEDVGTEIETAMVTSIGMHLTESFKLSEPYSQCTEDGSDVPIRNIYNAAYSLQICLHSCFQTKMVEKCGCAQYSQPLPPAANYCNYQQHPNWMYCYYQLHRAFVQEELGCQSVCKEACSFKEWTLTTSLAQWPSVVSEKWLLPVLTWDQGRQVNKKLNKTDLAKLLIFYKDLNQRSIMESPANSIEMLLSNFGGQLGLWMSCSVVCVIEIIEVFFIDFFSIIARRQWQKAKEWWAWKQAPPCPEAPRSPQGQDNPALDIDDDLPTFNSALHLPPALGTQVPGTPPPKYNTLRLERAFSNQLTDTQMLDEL
The experiment in a line: Short circuit current assay to determine ENaC blocker potency in human bronchial epithelial cells. The format is cell-based. The settings on record: 50% inhibition of total amiloride-sensitive ISC, apical addition, read-out: Averages.ENaC IC50 (nM) Avg. How it is done: Example 68—Short circuit current assay to determine ENaC blocker potency in human bronchial epithelial cells
Human bronchial epithelial cells (HBECs) (Lonza, UK) were cultured using a modification of the method described by Coote et al, (2008). Cells were seeded into plastic T-75 flasks and grown in Bronchial Epithelial Cell Growth Medium (BEGM) (Lonza, UK) supplemented with bovine pituitary extract (52 ng/mL), hydrocortisone (0.5 μg/mL), human recombinant Epidermal Growth Factor (0.5 ng/mL), epinephrine (0.5 ng/mL), transferrin (10 ng/mL), insulin (5 ng/mL), retinoic acid (0.1 ng/mL), triiodothyronine (6.5 ng/mL), gentamycin (50 μg/mL) and amphotericin-B (50 ng/mL). Medium was changed every 48 hours until cells were 90% confluent. Cells were then passaged and seeded (8.25×10^5 cells/insert) onto polycarbonate Snapwell™ inserts (Costar, UK) in differentiation media containing 50% DMEM in BGEM with the same supplements as above but without triiodothyronine and a final retinoic acid concentration of 50 nM (all-trans retinoic acid; Sigma-Aldrich, UK). Cells were maintained submerged for the first 7 days in culture after which time they were exposed to an apical air interface for the remainder of the culture period. From the first day of establishment of an ALI, HBEC were fed with a DMEM:HAMS F-12 (1:1) media containing 2% Ultroser G (Pall BioSepra, France) with gentamycin (50 μg/mL) and amphotericin B (50 ng/mL). Cells were used for short-circuit current assay between days 14-21 after the establishment of the ALI. At all stages of culture, cells were maintained at 37° C. in 5% CO2 in an air incubator.
Short-Circuit Current (ISC) Measurements
Snapwell inserts were mounted in Costar Vertical Diffusion Chambers (Costar, UK) and were bathed with continuously gassed Ringer solution (5% CO2 in O2; pH 7.4) maintained at 37° C. containing (in mM): 120 NaCl, 25 NaHCO3, 3.3 KH2PO4, 0.8 K2HPO4, 1.2 CaCl2, 1.2 MgCl2 and 10 glucose. The solution osmolarity was always between 280-300 mOsm/kg H2O for all physiological salt solutions used. Cells were voltage clamped to 0 mV (model EVC4000, WPI). Transepithelial resistance (RT) was measured by applying a 2 mV pulse at 30 s intervals and calculating RT by Ohm's law. Data were recorded using a PowerLab workstation (ADlnstruments, UK).
ENaC blocker compounds were added to the apical chamber from a 1000-fold stock solution (prepared in DMSO) to achieve a cumulative concentration response in terms of the inhibition of the basal ISC. At the completion of the concentration response, a supra-maximal concentration of amiloride (10 μM) was added. The concentration of test compound that induced a 50% inhibition of the total amiloride-sensitive ISC (IC50) was calculated using GraphPad Prism v6.05. The results are presented in Table 2, from which it can be seen that the compounds of the present invention have ENaC inhibiting activity.
Turning to `CCn1c(CNC(=O)c2nc3cc[nH]c3nc2N)[n+](Cc2ccccc2)c2ccc(Cl)cc21` [Example 16, 2-[({3-amino-5H-pyrrolo[2,3-b]pyrazin-2-yl}formamido)methyl]-3-benzyl-6-chloro-1-ethyl-1H-1,3-benzodiazol-3-ium], the concentration for half-maximal inhibition (IC50) is 10 nM.

As for `CCn1c(CNC(=O)c2nc3cc[nH]c3nc2N)[n+](Cc2ccccc2)c2ccc(C(F)(F)F)cc21` [Example 17, 2-[({3-amino-5H-pyrrolo[2,3-b]pyrazin-2-yl}formamido)methyl]-3-benzyl-1-ethyl-6-(trifluoromethyl)-1H-1,3-benzodiazol-3-ium], the IC50 is 15 nM.

Regarding `Nc1nc2[nH]ccc2nc1C(=O)NCc1n(CC(=O)N2CCCCC2)c2ccccc2[n+]1Cc1ccccc1` [Example 18, 2-[({3-amino-5H-pyrrolo[2,3-b]pyrazin-2-yl}formamido)methyl]-3-benzyl-1-[2-oxo-2-(piperidin-1-yl)ethyl]-1H-1,3-benzodiazol-3-ium], the IC50 is 5450 nM.

For the compound `CCn1c(CNC(=O)c2nc3cc(C)[nH]c3nc2N)[n+](C)c2ccc(OC)cc21` [Example 19, 2-[({3-amino-6-methyl-5H-pyrrolo[2,3-b]pyrazin-2-yl}formamido)methyl]-1-ethyl-6-methoxy-3-methyl-1H-1,3-benzodiazol-3-ium], the IC50 was 8 nM.

Consider `CCn1c(CNC(=O)c2nc3c(C)c[nH]c3nc2N)[n+](CC)c2ccc(Cl)cc21` [Example 20, 2-[({3-amino-7-methyl-5H-pyrrolo[2,3-b]pyrazin-2-yl}formamido)methyl]-6-chloro-1,3-diethyl-1H-1,3-benzodiazol-3-ium], for which the IC50 is 4 nM.

Regarding `CCn1c(CNC(=O)c2nc3c(Cl)c[nH]c3nc2N)[n+](CC)c2ccc(Cl)cc21` [Example 21, 2-[({3-amino-7-chloro-5H-pyrrolo[2,3-b]pyrazin-2-yl}formamido)methyl]-6-chloro-1,3-diethyl-1H-1,3-benzodiazol-3-ium], the half-inhibitory concentration (IC50) is 2 nM.

For the compound `CCn1c(CNC(=O)c2nc3cc[nH]c3nc2N)[n+](CC)c2ccc(OCCNC(=O)OC(C)(C)C)cc21` [Example 22, 2-[({3-amino-5H-pyrrolo[2,3-b]pyrazin-2-yl}formamido)methyl]-6-(2-{[(tert-butoxy)carbonyl]amino}ethoxy)-1,3-diethyl-1H-1,3-benzodiazol-3-ium], the concentration for half-maximal inhibition (IC50) came to 8 nM.

Consider `CCn1c(CNC(=O)c2nc3cc[nH]c3nc2N)[n+](CC)c2ccc(OCCCNC(=O)OC(C)(C)C)cc21` [Example 23, 2-[({3-amino-5H-pyrrolo[2,3-b]pyrazin-2-yl}formamido)methyl]-6-(3-{[(tert-butoxy)carbonyl]amino}propoxy)-1,3-diethyl-1H-1,3-benzodiazol-3-ium], for which the IC50 was determined as 4 nM.

Consider `CCn1c(CNC(=O)c2nc3cc[nH]c3nc2N)[n+](CC)c2ccc(CCCNC(=O)OC(C)(C)C)cc21` [Example 24, 2-[({3-amino-5H-pyrrolo[2,3-b]pyrazin-2-yl}formamido)methyl]-6-(3-{[(tert-butoxy)carbonyl]amino}propyl)-1,3-diethyl-1H-1,3-benzodiazol-3-ium], for which the IC50 stood at 6 nM.

For `CCn1c(CNC(=O)c2nc3cc[nH]c3nc2N)[n+](CC)c2ccc(C3CCN(C(=O)OC(C)(C)C)CC3)cc21` [Example 25, 2-[({3-amino-5H-pyrrolo[2,3-b]pyrazin-2-yl}formamido)methyl]-6-{1-[(tert-butoxy)carbonyl]piperidin-4-yl}-1,3-diethyl-1H-1,3-benzodiazol-3-ium], the 50% inhibitory concentration (IC50) came to 2 nM.

Take `CCn1c(CNC(=O)c2nc3cc[nH]c3nc2N)[n+](CC)c2ccc(-c3cnn(C4CCN(C(=O)OC(C)(C)C)CC4)c3)cc21` [Example 26, 2-[({3-amino-5H-pyrrolo[2,3-b]pyrazin-2-yl}formamido)methyl]-6-(1-{1-[(tert-butoxy)carbonyl]piperidin-4-yl}-1H-pyrazol-4-yl)-1,3-diethyl-1H-1,3-benzodiazol-3-ium]: the IC50 was 1 nM.

As for `CCn1c(CNC(=O)c2nc3cc[nH]c3nc2N)[n+](CC)c2ccc(OCCN)cc21` [Example 27, 2-[({3-amino-5H-pyrrolo[2,3-b]pyrazin-2-yl}formamido)methyl]-6-(2-aminoethoxy)-1,3-diethyl-1H-1,3-benzodiazol-3-ium], the IC50 was found to be 14 nM.

Regarding `CCn1c(CNC(=O)c2nc3cc[nH]c3nc2N)[n+](CC)c2ccc(OCCCN)cc21` [Example 28, 2-[({3-amino-5H-pyrrolo[2,3-b]pyrazin-2-yl}formamido)methyl]-6-(3-aminopropoxy)-1,3-diethyl-1H-1,3-benzodiazol-3-ium], the IC50 is 7 nM.

For `CCn1c(CNC(=O)c2nc3cc[nH]c3nc2N)[n+](CC)c2ccc(CCCN)cc21` [Example 29, 2-[({3-amino-5H-pyrrolo[2,3-b]pyrazin-2-yl}formamido)methyl]-6-(3-aminopropyl)-1,3-diethyl-1H-1,3-benzodiazol-3-ium], the concentration for half-maximal inhibition (IC50) came to 5 nM.

For the compound `CCn1c(CNC(=O)c2nc3cc[nH]c3nc2N)[n+](CC)c2ccc(C3CCNCC3)cc21` [Example 30, 2-[({3-amino-5H-pyrrolo[2,3-b]pyrazin-2-yl}formamido)methyl]-1,3-diethyl-6-(piperidin-4-yl)-1H-1,3-benzodiazol-3-ium], the IC50 came to 6 nM.

The record behind these values is patent US12371436B2, “Substituted benzodiazoliums as ENaC inhibitors” (ENTERPRISE THERAPEUTICS LIMITED, priority 2016, dated 2025).
